Measured values as given in patent publication US12612360B2 (Sanofi, priority 2020, dated 2026).

Target: T1, ERα (Homo sapiens, UniProt P03372)
T1 construct: host or cells: MCF7
T1 sequence (P03372 1-595): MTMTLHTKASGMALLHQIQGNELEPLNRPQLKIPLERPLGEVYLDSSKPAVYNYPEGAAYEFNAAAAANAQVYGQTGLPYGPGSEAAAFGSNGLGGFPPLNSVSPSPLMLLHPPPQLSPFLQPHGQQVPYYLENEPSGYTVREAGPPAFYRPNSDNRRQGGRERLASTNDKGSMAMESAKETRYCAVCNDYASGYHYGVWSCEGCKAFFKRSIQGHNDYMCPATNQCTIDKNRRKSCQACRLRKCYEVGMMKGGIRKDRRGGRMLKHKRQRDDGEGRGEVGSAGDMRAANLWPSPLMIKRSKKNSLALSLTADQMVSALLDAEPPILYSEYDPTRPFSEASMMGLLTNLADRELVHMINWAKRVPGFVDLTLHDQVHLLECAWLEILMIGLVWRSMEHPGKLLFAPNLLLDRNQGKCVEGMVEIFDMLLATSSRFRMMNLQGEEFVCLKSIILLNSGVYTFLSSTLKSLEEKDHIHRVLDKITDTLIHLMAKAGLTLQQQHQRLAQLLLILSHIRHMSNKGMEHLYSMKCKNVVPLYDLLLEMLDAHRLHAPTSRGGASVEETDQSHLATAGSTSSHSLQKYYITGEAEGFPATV
Experiment: Estrogen receptor degradation activity: breast cancer cell ERα in cell western assay (MCF7 cells)
Assay type: cell-based
Conditions: for % Degradation At 0.3 μM: 4 hours, relative to fulvestrant 0.1 μM positive control; for DC50: 4 hours post compound addition, concentration which degrades 50% of the estrogen receptor, read-out: Degradation IC50
In short: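 In-cell western readout: ERα immunofluorescence (Alexa 488) normalised to DNA signal (Syto-64) after formalin fixation. Compounds dosed for 4 h on MCF7 cells in stripped-serum, phenol-red-free medium over nine 1:5 steps, 0.3 to […] final; fulvestrant 0.1 μM control. IC50 in nM for 50% ERα degradation.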

| SMILES | % Degradation At 0.3 μM [%] | DC50 [nM] |
| --- | --- | --- |
| CCc1ccccc1C1=C(c2ccc(C=C3CN(CCCF)C3)cc2)c2ccc(C(=O)O)cc2CCC1 [Example 86, 8-(2-ethylphenyl)-9-(4-((1-(3-fluoropropyl)azetidin-3-ylidene)methyl)phenyl)-6,7-dihydro-5H-benzo[7]annulene-3-carboxylic acid] | 92 | 0.2 |
| Cc1cccc(C2=C(c3ccc(C=C4CN(CCCF)C4)cc3)c3ccc(C(=O)O)cc3CCC2)c1F [Example 48, 8-(2-fluoro-3-methylphenyl)-9-(4-((1-(3-fluoropropyl)azetidin-3-ylidene)methyl)phenyl)-6,7-dihydro-5H-benzo[7]annulene-3-carboxylic acid] | 95 | 0.3 |
| O=C(O)c1ccc2c(c1)CCCC(c1c(F)cccc1Cl)=C2c1ccc(C=C2CN(CCCF)C2)cc1 [Example 42, 8-(2-chloro-6-fluorophenyl)-9-(4-((1-(3-fluoropropyl)azetidin-3-ylidene)methyl)phenyl)-6,7-dihydro-5H-benzo[7]annulene-3-carboxylic acid] | 91 | 0.2 |
| Cc1c(Cl)cccc1C1=C(c2ccc(C=C3CN(CCCF)C3)cc2)c2ccc(C(=O)O)cc2CCC1 [Example 72, 8-(3-chloro-2-methylphenyl)-9-(4-((1-(3-fluoropropyl)azetidin-3-ylidene)methyl)phenyl)-6,7-dihydro-5H-benzo[7]annulene-3-carboxylic acid] | 97 | 0.3 |
| O=C(O)c1ccc2c(c1)CCCC(c1ccc3c(c1)CC3)=C2c1ccc(C=C2CN(CCCF)C2)cc1 [Example 8, 8-(Bicyclo[4.2.0]octa-1,3,5-trien-3-yl)-9-(4-((1-(3-fluoropropyl)azetidin-3-ylidene)methyl)phenyl)-6,7-dihydro-5H-benzo[7]annulene-3-carboxylic acid] | 86 | 0.4 |
| Cc1c(F)cccc1C1=C(c2ccc(C=C3CN(CCCF)C3)cc2)c2ccc(C(=O)O)cc2CCC1 [Example 85, 8-(3-fluoro-2-methylphenyl)-9-(4-((1-(3-fluoropropyl)azetidin-3-ylidene)methyl)phenyl)-6,7-dihydro-5H-benzo[7]annulene-3-carboxylic acid] | 94 | 0.2 |
| O=C(O)c1ccc2c(c1)CCCC(c1ccc(C(F)(F)F)cc1C(F)(F)F)=C2c1ccc(C=C2CN(CCCF)C2)cc1 [Example 16, 8-(2,4-bis(trifluoromethyl)phenyl)-9-(4-((1-(3-fluoropropyl)azetidin-3-ylidene)methyl)phenyl)-6,7-dihydro-5H-benzo[7]annulene-3-carboxylic acid] | 93 | 0.4 |
| O=C(O)c1ccc2c(c1)CCCC(c1cccc(F)c1F)=C2c1ccc(C=C2CN(CCCF)C2)cc1 [Example 55, 8-(2,3-difluorophenyl)-9-(4-((1-(3-fluoropropyl)azetidin-3-ylidene)methyl)phenyl)-6,7-dihydro-5H-benzo[7]annulene-3-carboxylic acid] | 94 | 1 |
| O=C(O)c1ccc2c(c1)CCCC(c1cccc(Cl)c1F)=C2c1ccc(C=C2CN(CCCF)C2)cc1 [Example 47, 8-(3-chloro-2-fluorophenyl)-9-(4-((1-(3-fluoropropyl)azetidin-3-ylidene)methyl)phenyl)-6,7-dihydro-5H-benzo[7]annulene-3-carboxylic acid] | 91 | 0.3 |
| O=C(O)c1ccc2c(c1)CCCC(c1cccc(F)c1C(F)(F)F)=C2c1ccc(C=C2CN(CCC(F)F)C2)cc1 [Example 26, 9-(4-((1-(3,3-difluoropropyl)azetidin-3-ylidene)methyl)phenyl)-8-(3-fluoro-2-(trifluoromethyl)phenyl)-6,7-dihydro-5H-benzo[7]annulene-3-carboxylic acid] | 91 | 0.4 |
| O=C(O)c1ccc2c(c1)CCCC(c1ccc(F)cc1F)=C2c1ccc(C=C2CN(CCC(F)F)C2)cc1 [Example 20, 8-(2,4-difluorophenyl)-9-(4-((1-(3,3-difluoropropyl)azetidin-3-ylidene)methyl)phenyl)-6,7-dihydro-5H-benzo[7]annulene-3-carboxylic acid] | 92 | 0.3 |
| O=C(O)c1ccc2c(c1)CCCC(c1cccc(F)c1Cl)=C2c1ccc(C=C2CN(CCCF)C2)cc1 [Example 78, 8-(2-chloro-3-fluorophenyl)-9-(4-((1-(3-fluoropropyl)azetidin-3-ylidene)methyl)phenyl)-6,7-dihydro-5H-benzo[7]annulene-3-carboxylic acid] | 93 | 0.6 |
| O=C(O)c1ccc2c(c1)CCCC(c1ccc(F)cc1F)=C2c1ccc(C=C2CN(CCCF)C2)cc1 [Example 54, 8-(2,4-difluorophenyl)-9-(4-((1-(3-fluoropropyl)azetidin-3-ylidene)methyl)phenyl)-6,7-dihydro-5H-benzo[7]annulene-3-carboxylic acid] | 93 | 0.4 |
| Cc1cccc(C2=C(c3ccc(C=C4CN(CCCF)C4)cc3)c3ccc(C(=O)O)cc3CCC2)c1Cl [Example 76, 8-(2-chloro-3-methylphenyl)-9-(4-((1-(3-fluoropropyl)azetidin-3-ylidene)methyl)phenyl)-6,7-dihydro-5H-benzo[7]annulene-3-carboxylic acid] | 94 | 0.5 |

Other lines, results leading:

| % Degradation At 0.3 μM [%] | DC50 [nM] | SMILES |
| --- | --- | --- |
| 81 | 3.7 | O=C(O)c1ccc2c(c1)CCCC(c1cc(Cl)cc(C(F)(F)F)c1)=C2c1ccc(C=C2CN(CCCF)C2)cc1 [Example 143, 8-(3-chloro-5-(trifluoromethyl)phenyl)-9-(4-((1-(3-fluoropropyl)azetidin-3-ylidene)methyl)phenyl)-6,7-dihydro-5H-benzo[7]annulene-3-carboxylic acid] |
| 94 | 0.1 | Cl.O=C(O)c1ccc2c(c1)CCCC(c1ccc(Cl)cc1Cl)=C2c1cc(F)c(C=C2CN(CCCF)C2)c(F)c1 [Example 105, 8-(2,4-dichlorophenyl)-9-(3,5-difluoro-4-((1-(3-fluoropropyl)azetidin-3-ylidene)methyl)phenyl)-6,7-dihydro-5H-benzo[7]annulene-3-carboxylic acid] |
| 90 | 0.7 | O=C(O)c1ccc2c(c1)CCCC([C@H]1C[C@@H]1c1ccccc1)=C2c1ccc(C=C2CN(CCCF)C2)cc1 (racemic) [Example 173, 9-(4-((1-(3-fluoropropyl)azetidin-3-ylidene)methyl)phenyl)-8-((trans)-2-phenylcyclopropyl)-6,7-dihydro-5H-benzo[7]annulene-3-carboxylic acid] |
| 91 | 0.5 | O=C(O)c1ccc2c(c1)CCCC(c1ccc(Cl)cc1)=C2c1ccc(C=C2CN(CCCF)C2)cc1 [Example 181, 8-(4-chlorophenyl)-9-(4-((1-(3-fluoropropyl)azetidin-3-ylidene)methyl)phenyl)-6,7-dihydro-5H-benzo[7]annulene-3-carboxylic acid] |
| 92 | 0.8 | Cc1ccc(C(F)(F)F)cc1C1=C(c2ccc(C=C3CN(CCCF)C3)cc2)c2ccc(C(=O)O)cc2CCC1 [Example 136, 9-(4-((1-(3-fluoropropyl)azetidin-3-ylidene)methyl)phenyl)-8-(2-methyl-5-(trifluoromethyl)phenyl)-6,7-dihydro-5H-benzo[7]annulene-3-carboxylic acid] |
| 85 | 0.2 | Oc1ccc2c(c1)CCCC(c1ccc(Cl)cc1Cl)=C2c1ccc(C=C2CN(CCCF)C2)cc1 [Example 170, 8-(2,4-dichlorophenyl)-9-(4-((1-(3-fluoropropyl)azetidin-3-ylidene)methyl)phenyl)-6,7-dihydro-5H-benzo[7]annulen-3-ol] |
| 94 | 0.7 | O=C(O)c1ccc2c(c1)CCCC(c1cc(C(F)(F)F)ccc1F)=C2c1ccc(C=C2CN(CCCF)C2)cc1 [Example 121, 8-(2-fluoro-5-(trifluoromethyl)phenyl)-9-(4-((1-(3-fluoropropyl)azetidin-3-ylidene)methyl)phenyl)-6,7-dihydro-5H-benzo[7]annulene-3-carboxylic acid] |
| 93 | 0.2 | Cc1cc(F)cc(C)c1C1=C(c2ccc(C=C3CN(CCCF)C3)cc2)c2ccc(C(=O)O)cc2CCC1 [Example 90, 8-(4-fluoro-2,6-dimethylphenyl)-9-(4-((1-(3-fluoropropyl)azetidin-3-ylidene)methyl)phenyl)-6,7-dihydro-5H-benzo[7]annulene-3-carboxylic acid] |
| 90 | 0.7 | Cc1cccc(C2=C(c3ccc(C=C4CN(CCC(F)F)C4)cc3)c3ccc(C(=O)O)cc3CCC2)c1C(F)(F)F [Example 116, 9-(4-((1-(3,3-difluoropropyl)azetidin-3-ylidene)methyl)phenyl)-8-(3-methyl-2-(trifluoromethyl)phenyl)-6,7-dihydro-5H-benzo[7]annulene-3-carboxylic acid] |
